Where a name gives a salt, the structure may show the parent alone. Read-outs that look alike come from different tables or passages of the source.
Legend:
S. pneumoniae = experiment: Resistance frequency determination and cross resistance of spontaneous mutants; type: cell-based, Streptococcus pneumoniae; conditions: cross resistance testing of 2 mutants
Yersinia pestis = experiment: microbe, parasite or virus in culture; type: cell-based; conditions: read-out: MIC Y.p.
[1] = tested on: Bacillus subtilis (ATCC 23857); experiment: MIC determination, microbroth dilution; type: cell-based; conditions: ATCC23857; Bacillus subtilis (ATCC 23857); read-out: MIC B.s.
[2] = tested on: Proteus vulgaris (ATCC 33420); experiment: MIC determination, microbroth dilution; type: cell-based; conditions: ATCC33420
[3] = tested on: Klebsiella pneumoniae (ATCC 33495); experiment: MIC determination, microbroth dilution; type: cell-based; conditions: ATCC33495
[4] = tested on: Neisseria meningitides (ATCC 13077); experiment: Disc diffusion assay; type: cell-based; conditions: ATCC13077, 4 μg per disc, read-out: Zone of inhibition N.m.
[5] = tested on: acinetobacter baumannii (ATCC 19606); experiment: MIC determination, microbroth dilution; type: cell-based; conditions: ATCC19606
[6] = tested on: Streptococcus pneumoniae clinical isolates representing several serotypes; experiment: MIC determination, Streptococcus pneumoniae panel of clinical isolates (Table 7); type: cell-based; conditions: Streptococcus pneumoniae
[7] = tested on: Neisseria gonorrhoeae (ATCC 49226); experiment: Agar MIC determination (Alamar Blue); type: cell-based; conditions: ATCC49226, agar MIC, read-out: MIC N.g.
E. coli K12 ΔtolC = experiment: microbe, parasite or virus in culture; type: cell-based; conditions: Escherichia coli, read-out: MIC E.c. Δtolc
[8] = tested on: Escherichia coli (ATCC 700926); experiment: MIC determination, microbroth dilution; type: cell-based; conditions: ATCC700926; Escherichia coli (ATCC 700926); read-out: MIC E.c.
[9] = tested on: live vaccine strain (LVS) of Francisella tularensis; experiment: microbe, parasite or virus in culture; type: cell-based; conditions: Francisella tularensis
[10] = tested on: Proteus mirabilis (ATCC 25933); experiment: MIC determination, microbroth dilution; type: cell-based; conditions: ATCC25933
[11] = tested on: Stenotrophomonas maltophilia (ATCC 13637); experiment: MIC determination, microbroth dilution; type: cell-based; conditions: ATCC13637; Stenotrophomonas maltophilia (ATCC 13637); read-out: MIC S.m.
[12] = tested on: Streptococcus pneumoniae (R6); experiment: MIC determination, microbroth dilution; type: cell-based
[13] = tested on: Bacillus anthracis, Sterne 34F2; experiment: microbe, parasite or virus in culture; type: cell-based; conditions: STERNE34F2, read-out: MIC B.a.
[14] = tested on: Pseudomonas aeruginosa (PA01); experiment: MIC determination, microbroth dilution; type: cell-based
[15] = tested on: Staphylococcus aureus (ATCC 29213); experiment: MIC determination, microbroth dilution; type: cell-based; conditions: ATCC29213; Staphylococcus aureus (ATCC 29213); read-out: MIC S.a.
Bacillus anthracis = experiment: microbe, parasite or virus in culture; type: cell-based; conditions: read-out: MIC B.a.
[16] = tested on: M. tuberculosis clinical isolates; experiment: microbe, parasite or virus in culture; type: cell-based; conditions: Mycobacterium tuberculosis, H37RV, read-out: MIC H37Rv
Listeria monocytogenes = experiment: MIC determination (Table 6); type: cell-based
[17] = tested on: Neisseria gonorrhoeae (ATCC 49226); experiment: Disc diffusion assay; type: cell-based; conditions: ATCC49226, 4 μg per disc, read-out: Zone of inhibition N.g.
[18] = tested on: Haemophilus influenza (ATCC 49247); experiment: microbe, parasite or virus in culture; type: cell-based; conditions: ATCC49247; Haemophilus influenza; 4 μg per disc; range of at least two experiments; read-out: Zone of inhibition H.i.
[19] = tested on: Enterococcus faecalis (ATCC 33186); experiment: MIC determination, microbroth dilution; type: cell-based
[20] = tested on: Legionella pneumophila (ATCC 33153); experiment: microbe, parasite or virus in culture; type: cell-based; conditions: ATCC33153, 72 h, read-out: Zone of inhibition L.p.
[21] = tested on: MRSA, Staphylococcus aureus (NRS70); experiment: MIC determination, microbroth dilution; type: cell-based; conditions: read-out: MIC MRSA
Moraxella catarrhalis = experiment: MIC determination (Table 6); type: cell-based
[22] = tested on: Burkholderia cepacia (ATCC 25416); experiment: MIC determination, microbroth dilution; type: cell-based; conditions: Burkholderia cepacia
[23] = tested on: Streptococcus pyogenes (ATCC 700294); experiment: MIC determination, microbroth dilution; type: cell-based; conditions: ATCC700294; Streptococcus pyogenes (ATCC 700294); read-out: MIC S. py.
[24] = BAA1407, S. pneumoniae BAA-1407, Macrolide Resistant, read-out: MIC BAA-1407
[25] = S. pneumoniae A66.1x, Drug Susceptible, read-out: MIC A66.1x
[26] = S. pneumoniae BHN97x, Drug Susceptible, read-out: MIC BHN97x
[27] = S. pneumoniae D39X, Drug Susceptible, read-out: MIC D39X
[28] = S. pneumoniae Daw7, PenG Resistant, read-out: MIC Daw7
[29] = S. pneumoniae Daw8, PenG Resistant, read-out: MIC Daw8
[30] = S. pneumoniae Daw9, PenG Resistant, read-out: MIC Daw9
[31] = S. pneumoniae Daw62, PenG Resistant, read-out: MIC Daw62
[32] = S. pneumoniae Daw64, PenG Resistant, read-out: MIC Daw64
[33] = S. pneumoniae OVA6, Macrolide Resistant, read-out: MIC OVA6
[34] = S. pneumoniae T4X, Drug Susceptible, read-out: MIC T4X
[35] = Streptococcus pneumoniae (R6), read-out: MIC S. pn.
[36] = Streptococcus pneumoniae, S. pneumoniae R6, Drug Susceptible, read-out: MIC R6
[37] = ATCC25416, read-out: MIC B.c., Burkholderia cepacia (ATCC 25416)
[38] = ATCC25416, read-out: MIC B.c., Burkholderia cepacia, Table 6
[39] = ATCC33186, Enterococcus faecalis (ATCC 33186), read-out: MIC E.f.

NCC[C@H](O)C(=O)N[C@@H]1C[C@H](N)[C@@H](O[C@H]2O[C@H](CN)[C@@H](O)[C@H](O)[C@H]2O)[C@H](O)[C@H]1O[C@H]1O[C@H](CO)[C@@H](O)[C@H](N)[C@H]1O [amikacin]
susceptibility of mutants resistant to 2 (S. pneumoniae): susceptible

CC1(C)S[C@@H]2[C@H](NC(=O)[C@H](N)c3ccccc3)C(=O)N2[C@H]1C(=O)O [ampicillin]
susceptibility of mutants resistant to 2 (S. pneumoniae): susceptible

CCc1ccc(CNC[C@]2(O)C[C@@H](C)O[C@H]3O[C@@H]4[C@@H](O)[C@H](NC)[C@H](O)[C@H](NC)[C@H]4O[C@]32O)cc1 [compound 3, 3′-(R)-3′-[(4-ethyl)benzylaminomethyl)]dihydrospectinomycin Trihydrochloride]
MIC (Yersinia pestis): > 200 µg/mL
MIC [1]: 3.1 to 6.3 µg/mL
MIC [2]: 25 to 50 µg/mL
MIC [3]: 100 to 200 µg/mL
zone of inhibition at 4 µg/disc [4]: 18 mm
MIC [5]: 200 µg/mL
MIC [6, 24]: 6.3 µg/mL
MIC [6, 25]: 1.6 µg/mL
MIC [6, 26]: 3.1 µg/mL
MIC [6, 27]: 1.6 µg/mL
MIC [6, 28]: 6.3 µg/mL
MIC [6, 29]: 3.1 µg/mL
MIC [6, 30]: 3.1 µg/mL
MIC [6, 31]: 6.3 µg/mL
MIC [6, 32]: 6.3 µg/mL
MIC [6, 33]: 6.3 µg/mL
MIC [6, 34]: 3.1 µg/mL
MIC [7]: 12.5 µg/mL
MIC (E. coli K12 ΔtolC): 6.3 µg/mL
MIC [8]: 12.5 to 25 µg/mL
MIC ([9]; read-out: MIC F.t.): 1.6 to 3.1 µg/mL
MIC [10]: 100 to 200 µg/mL
MIC [11]: 12.5 µg/mL
MIC [12, 35]: 1.6 to 3.1 µg/mL
MIC [12, 36]: 3.1 µg/mL
MIC [13]: 12.5 to 25 µg/mL
MIC [14]: 100 to 200 µg/mL
MIC [15]: 50 µg/mL
MIC (Bacillus anthracis): 12.5 to 25 µg/mL
MIC [16]: 25 µg/mL
MIC (Listeria monocytogenes): 6.3 µg/mL
zone of inhibition at 4 µg/disc [17]: 16 mm
zone of inhibition at 4 µg/disc [18]: 15 to 17 mm
MIC ([19]; Enterococcus faecalis, ATCC33186, read-out: MIC E.f.): 12.5 to 25 µg/mL
zone of inhibition at 4 µg/disc [20]: 28 to 40 mm
MIC ([21]; Staphylococcus aureus): 12.5 to 25 µg/mL
MIC (Moraxella catarrhalis): 3.1 to 6.3 µg/mL
MIC [22, 37]: > 200 µg/mL
MIC [22, 38]: > 200 µg/mL
MIC [23]: 1.6 to 3.1 µg/mL

CCOc1ccc(CNC[C@]2(O)C[C@@H](C)O[C@H]3O[C@@H]4[C@@H](O)[C@H](NC)[C@H](O)[C@H](NC)[C@H]4O[C@]32O)cc1 [compound 4, 3′-(R)-3′-[(4-ethoxyl)benzylaminomethyl)]dihydrospectinomycin Trihydrochloride]
MIC (Yersinia pestis): > 200 µg/mL
MIC [1]: 12.5 to 25 µg/mL
MIC [2]: > 200 µg/mL
MIC [3]: 100 to 200 µg/mL
zone of inhibition at 4 µg/disc [4]: 16 to 18 mm
MIC [5]: ≥ 200 µg/mL
MIC [6, 24]: 6.3 µg/mL
MIC [6, 25]: 0.8 µg/mL
MIC [6, 26]: 1.6 µg/mL
MIC [6, 27]: 0.8 µg/mL
MIC [6, 28]: 3.1 µg/mL
MIC [6, 29]: 1.6 µg/mL
MIC [6, 30]: 3.1 µg/mL
MIC [6, 31]: 3.1 µg/mL
MIC [6, 32]: 3.1 µg/mL
MIC [6, 33]: 3.1 µg/mL
MIC [6, 34]: 1.6 µg/mL
MIC [7]: 12.5 µg/mL
MIC (E. coli K12 ΔtolC): 6.3 µg/mL
MIC [8]: 25 to 50 µg/mL
MIC ([9]; read-out: MIC F.t.): 0.8 to 3.1 µg/mL
MIC [10]: > 200 µg/mL
MIC [11]: 25 to 50 µg/mL
MIC [12, 35]: 1.6 to 3.1 µg/mL
MIC [12, 36]: 1.6 µg/mL
MIC [13]: 100 µg/mL
MIC [14]: 100 to 200 µg/mL
MIC [15]: 25 to 50 µg/mL
MIC (Bacillus anthracis): 100 µg/mL
MIC [16]: 25 µg/mL
MIC (Listeria monocytogenes): 6.3 to 12.5 µg/mL
zone of inhibition at 4 µg/disc [17]: 15 to 17 mm
zone of inhibition at 4 µg/disc [18]: 15 to 18 mm
MIC [19, 39]: 12.5 to 25 µg/mL
zone of inhibition at 4 µg/disc [20]: 18 to 33 mm
MIC ([21]; Staphylococcus aureus (NRS70)): 50 µg/mL
MIC (Moraxella catarrhalis): 3.1 to 6.3 µg/mL
MIC [22, 37]: > 200 µg/mL
MIC [22, 38]: > 200 µg/mL
MIC [23]: 1.6 to 3.1 µg/mL

CN[C@@H]1[C@H](O)[C@H](NC)[C@H]2O[C@]3(O)[C@H](O[C@@H]2[C@H]1O)O[C@H](C)C[C@@]3(O)CNCc1ccc(OC(F)(F)F)cc1 [compound 11, 3′-(R)-3′-[(4-trifluoromethoxyl)benzylaminomethyl)]dihydrospectinomycin Trihydrochloride]
MIC (Yersinia pestis): 200 µg/mL
MIC [1]: 100 µg/mL
MIC [2]: > 200 µg/mL
MIC [3]: > 200 µg/mL
zone of inhibition at 4 µg/disc [4]: 18 to 19 mm
MIC [5]: > 200 µg/mL
MIC [6, 24]: 6.3 µg/mL
MIC [6, 28]: 3.1 µg/mL
MIC [6, 29]: 1.6 µg/mL
MIC [6, 30]: 1.6 µg/mL
MIC [6, 31]: 1.6 µg/mL
MIC [6, 32]: 3.1 µg/mL
MIC [6, 33]: 6.3 µg/mL
MIC [6, 34]: 0.8 µg/mL
MIC [7]: 12.5 µg/mL
MIC (E. coli K12 ΔtolC): 12.5 µg/mL
MIC [8]: 25 µg/mL
MIC [9]: 1.6 µg/mL
MIC ([9]; read-out: MIC F.t.): 1.6 to 3.1 µg/mL
MIC [10]: > 200 µg/mL
MIC [11]: 50 to 100 µg/mL
MIC [12, 35]: 3.1 µg/mL
MIC [12, 36]: 3.1 µg/mL
MIC [13]: 100 to 200 µg/mL
MIC [14]: 100 to 200 µg/mL
MIC [15]: 100 µg/mL
MIC (Bacillus anthracis): 100 to 200 µg/mL
MIC [16]: 50 µg/mL
MIC (Listeria monocytogenes): 12.5 to 25 µg/mL
zone of inhibition at 4 µg/disc [17]: 16 to 20 mm
zone of inhibition at 4 µg/disc [18]: 16 mm
MIC [19, 39]: 25 to 50 µg/mL
zone of inhibition at 4 µg/disc [20]: 21 mm
MIC ([21]; Staphylococcus aureus (NRS70)): 100 to 200 µg/mL
MIC (Moraxella catarrhalis): 6.3 µg/mL
MIC [22, 37]: > 200 µg/mL
MIC [22, 38]: > 200 µg/mL
MIC [23]: 1.6 µg/mL

— patent publication US10266544B2, “Aryl substituted aminomethyl spectinomycin analogs as antibacterial agents” (ST. JUDE CHILDREN'S RESEARCH HOSPITAL, INC., priority 2013, dated 2019)
